We go through 37 compounds from patent US10577373B2, “TYK2 inhibitors and uses thereof” (Nimbus Lakshmi, Inc., priority 2017, dated 2020).

In assay [1] the test system is GM-CSF induced STAT5 phosphorylation mediated by the JAK2/JAK2 homdimeric complex. Description: GM-CSF Induced pSTAT5 in Human PBMC. As to conditions: GM-CSF 5 ng/mL for 20 minutes, pSTAT5.
Excerpt: Human PBMC are isolated from buffy coat and are stored frozen for assays as needed.
Assay [2] deals with IL-12 induced STAT4 phophorylation mediated by Tyk2/JAK2 (heterodimeric complex). Description: IL-12 Induced pSTAT4 in Human PBMC. Type of assay: cell-based. As to conditions: 1.7 ng/mL IL-12. The source says:
The IL-12 Induced pSTAT4 assay evaluates the inhibition of IL-12 induced STAT4 phophorylation mediated by Tyk2/JAK2 (heterodimeric complex).

Where [3] appears, read: Homo sapiens, PBMC, 20 min, read-out: PBMC_GMCSF_pSTAT5 IC50, human PBMC.
[4] abbreviates: read-out: PBMC_GMCSF_pSTAT5 IC50, human PBMC.

Structures are written as SMILES. Where two headings read alike, the source gives them in different places.

For the compound `CNc1cc(Nc2cccn(C3CCCOC3)c2=O)nc2c(C(=O)NC3CCC3)cnn12` (racemic) [I-324], the IC50 was greater than 50 µM in assay [1] (setting [3]) and less than 100 nM in assay [2].
The corresponding values for `CNc1cc(Nc2cccc3ocnc23)nc2c(C(=O)N[C@@H]3CC[C@H]3O)cnn12` (racemic) [I-756, 5-(benzo[d]oxazol-4-ylamino)-N-(2-hydroxycyclobutyl)-7-(methylamino) pyrazolo[1,5-a]pyrimidine-3-carboxamide] are greater than 50 µM and 100 to 500 nM.
For `CNc1cc(Nc2cccn(-c3ccn(C4CC4)n3)c2=O)nc2c(C(=O)N[C@@H]3C[C@@H]3F)cnn12` (stereo in doubt) [I-106, 5-((1-(1-cyclopropyl-1H-pyrazol-3-yl)-2-oxo-1,2-dihydropyridin-3-yl)amino)-N-((1R,2S)-2-fluorocyclopropyl)-7-(methylamino)pyrazolo[1,5-a]pyrimidine-3-carboxamide], the figures for the IC50 in assay [1] (setting [3]) and in assay [2] were greater than 12.5 µM and less than 100 nM, respectively.
The corresponding values for `CNc1cc(Nc2cccn(-c3ccnc(C)n3)c2=O)nc2c(C(=O)N[C@@H]3C[C@@H]3F)cnn12` (stereo in doubt) [I-124, N-((1R,2S)-2-fluorocyclopropyl)-7-(methylamino)-5-((1-(2-methylpyrimidin-4-yl)-2-oxo-1,2-dihydropyridin-3-yl)amino)pyrazolo[1,5-a]pyrimidine-3-carboxamide] are greater than 12.5 µM and less than 100 nM.
With `CNc1cc(-c2cn(C(C)C)c3ncccc23)nc2c(C(=O)N[C@@H]3C[C@@H]3F)cnn12` (stereo in doubt) [I-225, N-((1R,2S)-2-fluorocyclopropyl)-5-(1-isopropyl-1H-pyrrolo[2,3-b]pyridin-3-yl)-7-(methylamino)pyrazolo[1,5-a]pyrimidine-3-carboxamide], the IC50 in assay [1] (setting [3]) was greater than 50 µM; in assay [2] it was less than 100 nM.
`CNc1cc(Nc2cccnc2OC)nc2c(C(=O)N[C@@H]3CC[C@H]3O)cnn12` (stereo in doubt) [I-363, N-((1R,2R)-2-hydroxycyclobutyl)-5-((2-methoxypyridin-3-yl)amino)-7-(methylamino)pyrazolo[1,5-a]pyrimidine-3-carboxamide]: the IC50 in assay [1] (setting [4]) was greater than 50 µM; in assay [2], less than 100 nM.
As for `CNc1cc(Nc2cccnc2OC2CC2)nc2c(C(=O)NC3CCC3O)cnn12` (stereo in doubt) [I-366, 5-((2-cyclopropoxypyridin-3-yl)amino)-N-((1R,2R)-2-hydroxycyclobutyl)-7-(methylamino)pyrazolo[1,5-a]pyrimidine-3-carboxamide], the IC50 in assay [1] (setting [3]) is greater than 50 µM; in assay [2], less than 100 nM.
In the case of `[2H]C([2H])([2H])Nc1cc(Nc2cccnc2OC)nc2c(C(=O)N[C@@H]3C[C@@H]3F)cnn12` (stereo in doubt) [I-374, N-((1R,2S)-2-fluorocyclopropyl)-5-((2-methoxypyridin-3-yl)amino)-7-((methyl-d3)amino)pyrazolo[1,5-a]pyrimidine-3-carboxamide], the IC50 is greater than 50 µM in assay [1] (setting [3]) and less than 100 nM in assay [2].
Regarding `[2H]C([2H])([2H])Nc1cc(Nc2cccnc2OC2CC2)nc2c(C(=O)N[C@@H]3C[C@@H]3F)cnn12` (stereo in doubt) [I-375, 5-((2-cyclopropoxypyridin-3-yl)amino)-N-((1R,2S)-2-fluorocyclopropyl)-7-((methyl-d3)amino)pyrazolo[1,5-a]pyrimidine-3-carboxamide], the IC50 in assay [1] (setting [3]) is greater than 50 µM; in assay [2] it was less than 100 nM.
Take `COc1ncccc1Nc1cc(NCCCN2CCOCC2)n2ncc(C(=O)N[C@@H]3C[C@@H]3F)c2n1` (stereo in doubt) [I-377, N-((1R,2S)-2-fluorocyclopropyl)-5-((2-methoxypyridin-3-yl)amino)-7-((3-morpholinopropyl)amino)pyrazolo[1,5-a]pyrimidine-3-carboxamide]: the half-maximal inhibitory concentration (IC50) was greater than 50 µM in assay [1] (setting [3]) and 100 to 500 nM in assay [2].
Take `[2H]C([2H])([2H])Oc1ncccc1Nc1cc(NC)n2ncc(C(=O)N[C@@H]3CC[C@@H]3O)c2n1` (stereo in doubt) [I-391, N-(2-hydroxycyclobutyl)-5-((2-(methoxy-d3)pyridin-3-yl)amino)-7-(methylamino)pyrazolo[1,5-a]pyrimidine-3-carboxamide]: the figures for the half-maximal inhibitory concentration (IC50) in assay [1] (setting [4]) and in assay [2] were greater than 50 µM and less than 100 nM, respectively.
`[2H]C([2H])([2H])Oc1ncccc1Nc1cc(NC)n2ncc(C(=O)N[C@H]3CC[C@H]3O)c2n1` (stereo in doubt) [I-399, N-((1 S,2R)-2-hydroxycyclobutyl)-5-((2-(methoxy-d3)pyridin-3-yl)amino)-7-(methylamino) pyrazolo[1,5-a]pyrimidine-3-carboxamide]: the values for the 50% inhibitory concentration (IC50) in assay [1] (setting [4]) and in assay [2] were greater than 12.5 µM and less than 100 nM, respectively.
The corresponding values for `CNc1cc(-c2cn(C(C)C)c3ncccc23)nc2c(C(=O)N[C@@H]3CC[C@H]3O)cnn12` (stereo in doubt) [I-586, N-((1R,2R)-2-hydroxycyclobutyl)-5-(1-isopropyl-1H-pyrrolo[2,3-b]pyridin-3-yl)-7-(methylamino)pyrazolo[1,5-a]pyrimidine-3-carboxamide] are greater than 50 µM and less than 100 nM.
As to `CNc1cc(Nc2cccn(-c3nc(C)co3)c2=O)nc2c(C(=O)N[C@@H]3CC[C@H]3O)cnn12` (stereo in doubt) [I-658, N-((1R,2R)-2-hydroxycyclobutyl)-7-(methylamino)-5-((1-(4-methyloxazol-2-yl)-2-oxo-1,2-dihydropyridin-3-yl)amino)pyrazolo[1,5-a]pyrimidine-3-carboxamide], the IC50 in assay [1] (setting [3]) is greater than 50 µM; in assay [2], less than 100 nM.
Consider `CNc1cc(Nc2cccn(-c3ncc(C)s3)c2=O)nc2c(C(=O)N[C@H]3CC[C@@H]3O)cnn12` (stereo in doubt) [I-676, N-(2-hydroxycyclobutyl)-7-(methylamino)-5-((1-(5-methylthiazol-2-yl)-2-oxo-1,2-dihydropyridin-3-yl)amino)pyrazolo[1,5-a]pyrimidine-3-carboxamide], for which the values for the IC50 in assay [1] (setting [3]) and in assay [2] were greater than 2.5 µM and less than 100 nM, respectively.
On to `CNc1cc(Nc2cccn(-c3ccccn3)c2=O)nc2c(C(=O)N[C@@H]3CC[C@H]3OC)cnn12` (stereo in doubt) [I-816, N-(2-methoxycyclobutyl)-7-(methylamino)-5-((2-oxo-2H-[1,2′-bipyridin]-3-yl)amino)pyrazolo[1,5-a]pyrimidine-3-carboxamide], for which the results for the IC50 in assay [1] (setting [4]) and in assay [2] were greater than 2.5 µM and less than 100 nM, respectively.
Turning to `CNc1cc(Nc2cc(C)cc(C)c2)nc2c(C(N)=O)cnn12` [I-2, 5-((3,5-dimethylphenyl)amino)-7-(methylamino)pyrazolo[1,5-a]pyrimidine-3-carboxamide], the figures for the IC50 in assay [1] (setting [3]) and in assay [2] were greater than 50 µM and less than 100 nM, respectively.
Taken in the same sequence, the figures for `CNc1cc(Nc2cc(F)ccc2F)nc2c(C(=O)NC3CC3)cnn12` [I-3] were greater than 12.5 µM and less than 100 nM.
Taken in the same sequence, the figures for `CNc1cc(Nc2cccnc2OC)nc2c(C(=O)NC3CCC3)cnn12` [I-4] were greater than 12.5 µM and less than 100 nM.
The corresponding values for `CNc1cc(Nc2cc(F)cc(F)c2F)nc2c(C(=O)NC3CC3)cnn12` [I-5] are greater than 50 µM and less than 100 nM.
On to `CNc1cc(Nc2cc(C)cc(F)c2)nc2c(C(=O)NC3CC3)cnn12` [I-6], for which the IC50 was greater than 50 µM in assay [1] (setting [3]) and less than 100 nM in assay [2].
As to `CNc1cc(Nc2cccc(N3CCCC3=O)n2)nc2c(C(=O)NC3CC3)cnn12` [I-7], the IC50 in assay [1] (setting [3]) is greater than 12.5 µM; in assay [2], less than 100 nM.
The corresponding values for `CNc1cc(Nc2cccc(C)c2Cl)nc2c(C(N)=O)cnn12` [I-14] are greater than 50 µM and less than 100 nM.
For the compound `CNc1cc(Nc2cccc(-c3nccs3)c2Cl)nc2c(C(N)=O)cnn12` [I-16], the IC50 in assay [1] (setting [3]) was greater than 2.5 µM; in assay [2], less than 100 nM.
As for `CNc1cc(Nc2cccc(-c3cnn(C)c3)c2Cl)nc2c(C(N)=O)cnn12` [I-17], the IC50 in assay [1] (setting [3]) is greater than 2.5 µM; in assay [2], less than 100 nM.
Taken in the same sequence, the figures for `CNc1cc(Nc2cc(C)cn(-c3cnn(C)c3)c2=O)nc2c(C(N)=O)cnn12` [I-31] were greater than 0.3 µM and 100 to 500 nM.
Consider `CCn1cc(Cl)cc(Nc2cc(NC)n3ncc(C(N)=O)c3n2)c1=O` [I-35], for which the results for the IC50 in assay [1] (setting [3]) and in assay [2] were greater than 0.3 µM and less than 100 nM, respectively.
Compound `CNc1cc(Nc2cccn([C@H]3CCC[C@H]3O)c2=O)nc2c(C(=O)N[C@H]3CC[C@@H]3OC)cnn12` [I-1373] had an IC50 in assay [2] of less than 100 nM.
On the same count and under the same terms, with `CNc1cc(Nc2cccn([C@H]3CCC[C@H](OC)C3)c2=O)nc2c(C(=O)N[C@@H]3CC[C@H]3OC)cnn12` [I-1374] the figure was less than 100 nM.
Compound `CNc1cc(Nc2cccn([C@H]3CCCC[C@H]3OC)c2=O)nc2c(C(=O)N[C@H]3CC[C@@H]3OC)cnn12` [I-1377] registered an IC50 in assay [2] of less than 100 nM.
On the same count and under the same terms, with `CNc1cc(Nc2cccn([C@H]3CCN(CCF)C3)c2=O)nc2c(C(=O)N[C@H]3CC[C@@H]3OC)cnn12` [I-1381] the figure was less than 100 nM; with `CNc1cc(Nc2cccn([C@@H]3CCCN(CCF)C3)c2=O)nc2c(C(=O)N[C@H]3CC[C@@H]3OC)cnn12` [I-1382], less than 100 nM; with `CNc1cc(Nc2cccn([C@H]3CC[C@@H]3O)c2=O)nc2c(C(=O)N[C@H]3CC[C@@H]3OC)cnn12` [I-1385], less than 100 nM.
In assay [2], `CNc1cc(-c2cn(CCCO)c3ncccc23)nc2c(C(=O)N[C@H]3CC[C@@H]3OC)cnn12` [I-1388] had an IC50 of less than 100 nM.
Regarding `CNc1cc(Nc2cccn(C3CC(F)(F)C3)c2=O)nc2c(C(=O)N[C@H]3CC[C@@H]3OC)cnn12` [I-1389], the IC50 in assay [2] is less than 100 nM.
`CNc1cc(Nc2cccn([C@H]3CCC[C@H](O)C3)c2=O)nc2c(C(=O)N[C@@H]3CC[C@H]3OC)cnn12` [I-1395] registered an IC50 in assay [2] of less than 100 nM.
As for `CNc1cc(Nc2cccn([C@@H]3CC[C@@H]3O)c2=O)nc2c(C(=O)N[C@H]3CC[C@@H]3OC)cnn12` [I-1411], the IC50 in assay [2] was less than 100 nM.

For orientation: IC50 means the midpoint of a concentration-inhibition curve.
